Where two headings read alike, the source gives them in different places.
What was measured:
Assay type in all cases: cell-based
Pseudomonas aeruginosa [1] = test: MIC and synergy of MIT/BIT (1:1) and HCHO in Müller-Hinton broth, 48 h
Protocol: (§1) The synergy index is calculated according to the method of F. C. Kull et al., Applied Microbiology, Vol. 9 (1961), p. 538. Here the synergy index is calculated using the following formula:
(§2) Synergy index SI=Qa/QA+Qb/QB.
The test batches contained a Müller-Hinton broth as a nutrient medium. The cell density was 10^6 cells/mL. The incubation time was 48 h at 25° C. Each sample was incubated on an incubation shaker at 120 rpm.

Escherichia coli = test: as above
Protocol: as §1, §2
The test batches contained a Müller-Hinton broth as a nutrient medium. The cell density was 10^6 cells/mL. The incubation time was 48 b at 25° C. Each sample was incubated on an incubation shaker at 120 rpm.

Pseudomonas aeruginosa [2] = test: MIC and synergy of MIT/BIT (1:1) and OIT in Müller-Hinton broth, 144 h
Protocol: (§3) In all the examples in which an active substance mixture of MIT and BIT as well as additionally a further active biocidal substance was used, the weight ratio of MIT to BIT was 1:1.
as §1, §2
The synergy of an active substance mixture that contains OIT in addition to MIT and BIT, against the microorganism Pseudomonas aeruginosa is shown as in Example 1.
The test batches contained a Müller-Hinton broth as a nutrient medium. The cell density was 10^6 cells/mL. The incubation time was 144 h at 25° C. Each sample was incubated on an incubation shaker at 120 rpm.

Aspergillus niger = test: MIC and synergy of MIT/BIT (1:1) and OIT in Sabouraud maltose broth, 72 h
Protocol: as §3, §1, §2
The synergy of an active substance mixture that contains 2-n-octylisothiazolin-3-one (OIT) in addition to MIT and BIT, against the microorganism Aspergillus niger is shown as in Example 1.
(§4) The test batches contained a Sabouraud maltose broth as a nutrient medium. The spore concentration was 10^6 per mL. The incubation time was 72 h at 25° C. Each sample was incubated on an incubation shaker at 120 rpm.

Penicillium funiculosum = test: as above; settings: for growth of the microorganism: MIT/BIT ppm = row head c0; as to growth of the microorganism: key: growth of the microorganism took place (symbol '+'); or not (symbol '−')
Protocol: as §3, §1, §2
The synergy of an active substance mixture that contains OIT in addition to MIT and BIT, against the microorganism Penicillium funiculosum is shown as in Example 1.
as §4

Saccharomyces cerevisiae = test: as above
Protocol: as §3, §1, §2
The synergy of an active substance mixture that contains OIT in addition to MIT and BIT, against the microorganism Saccharomyces cerevisiae is shown as in Example 1.
The test batches contained a Sabouraud maltose broth as a nutrient medium. The cell density was 10^6 cells/mL. The incubation time was 72 h at 25° C. Each sample was incubated on an incubation shaker at 120 rpm.

Which Qb/QB (Pseudomonas aeruginosa [1]) does the source give for C=O [HCHO, formaldehyde] here?
The Qb/QB was 1.00.

And the “Synergy index Qa/QA + Qb/QB” value (Pseudomonas aeruginosa [1])?
The value was 1.00.

And the “Total concentration MIT/BIT + HCHO” value (Pseudomonas aeruginosa [1]; at the MIC)?
Its value is 300 ppm.

What about the MIC (Pseudomonas aeruginosa [1]; read-out: MIC at HCHO concentration Qb) of the same compound?
Its MIC is 300 µg/mL.

What about the MIC (Pseudomonas aeruginosa [1]; read-out: MIC value) of the same compound?
The MIC was 300 µg/mL.

And the Qb/QB (Escherichia coli; 48 h)?
Its Qb/QB is 1.00.

And the “Synergy index Qa/QA + Qb/QB” value (Escherichia coli; 48 h)?
Its value is 1.00.

And the MIC (Escherichia coli; 48 h, read-out: MIC at HCHO concentration Qb)?
Its MIC is 300 µg/mL.

And the “Total concentration MIT/BIT + HCHO” value (Escherichia coli; at the MIC, 48 h)?
Its value is 300 ppm.

What about the MIC (Escherichia coli; read-out: MIC value) of the same compound?
Its MIC is 300 µg/mL.

CCCCCCCCn1sccc1=O [OIT, 2-n-octylisothiazolin-3-one] was tested. Which “MIC at OIT concentration Qb” value (Pseudomonas aeruginosa [2]; OIT share at the MIC, Pseudomonas aeruginosa, 144 h) did it give?
The value was 900 ppm.

What about the Qb/QB (Pseudomonas aeruginosa [2]; Pseudomonas aeruginosa, 144 h) of the same compound?
Its Qb/QB is 1.00.

And the “Synergy index Qa/QA + Qb/QB” value (Pseudomonas aeruginosa [2]; Pseudomonas aeruginosa, 144 h)?
The value was 1.00.

What about the “Total concentration MIT/BIT + OIT” value (Pseudomonas aeruginosa [2]; at the MIC, Pseudomonas aeruginosa, 144 h) of the same compound?
The value was 900 ppm.

And the MIC value (Pseudomonas aeruginosa [2]; used alone, 144 h at 25° C.)?
Its MIC value is “over 800 ppm”.

And the Qb/QB (Aspergillus niger; Aspergillus niger, 72 h)?
Its Qb/QB is 1.00.

And the “Synergy index Qa/QA + Qb/QB” value (Aspergillus niger; Aspergillus niger, 72 h)?
The value was 1.00.

And the “MIC at OIT concentration Qb” value (Aspergillus niger; OIT share at the MIC, Aspergillus niger, 72 h)?
Its value is 5 ppm.

And the “Total concentration MIT/BIT + OIT” value (Aspergillus niger; at the MIC, Aspergillus niger, 72 h)?
The value was 5 ppm.

What about the MIC value (Aspergillus niger; used alone, 72 h at 25° C.) of the same compound?
The MIC value was 5 ppm.

And the “growth of the microorganism” value (Penicillium funiculosum; OIT 0.25 ppm, 72 h)?
Its value is “+”.

And the “growth of the microorganism” value (Penicillium funiculosum; OIT 0.5 ppm, 72 h)?
The value was “+”.

What about the “growth of the microorganism” value (Penicillium funiculosum; OIT 1 ppm, 72 h) of the same compound?
Its value is “+”.

What about the “growth of the microorganism” value (Penicillium funiculosum; OIT 2.5 ppm, 72 h) of the same compound?
The value was “+”.

What about the “growth of the microorganism” value (Penicillium funiculosum; OIT 5 ppm, 72 h) of the same compound?
The value was “−”.

And the “MIC at OIT concentration Qb” value (Penicillium funiculosum; OIT share at the MIC, Penicillium funiculosum, 72 h)?
Its value is 5 ppm.

What about the Qb/QB (Penicillium funiculosum; Penicillium funiculosum, 72 h) of the same compound?
The Qb/QB was 1.00.

What about the “Synergy index Qa/QA + Qb/QB” value (Penicillium funiculosum; Penicillium funiculosum, 72 h) of the same compound?
The value was 1.00.

What about the “Total concentration MIT/BIT + OIT” value (Penicillium funiculosum; at the MIC, Penicillium funiculosum, 72 h) of the same compound?
The value was 5 ppm.

What about the MIC value (Penicillium funiculosum; used alone, 72 h at 25° C.) of the same compound?
The MIC value was 5 ppm.

What about the “MIC at OIT concentration Qb” value (Saccharomyces cerevisiae; OIT share at the MIC, Saccharomyces cerevisiae, 72 h) of the same compound?
Its value is 5 ppm.

And the Qb/QB (Saccharomyces cerevisiae; Saccharomyces cerevisiae, 72 h)?
The Qb/QB was 1.00.

And the “Synergy index Qa/QA + Qb/QB” value (Saccharomyces cerevisiae; Saccharomyces cerevisiae, 72 h)?
Its value is 1.00.

What about the “Total concentration MIT/BIT + OIT” value (Saccharomyces cerevisiae; at the MIC, Saccharomyces cerevisiae, 72 h) of the same compound?
Its value is 5 ppm.

And the MIC value (Saccharomyces cerevisiae; used alone, 72 h at 25° C.)?
Its MIC value is 5 ppm.
